Measured values taken from US6165998A, “Antifungal agents” (Scriptgen Pharmaceuticals, Inc., priority 1998, dated 2000).
Converted amounts (≈) assume the structure as drawn. “Also recorded” adds a separate entry of the source. Read-outs that look alike come from different tables or passages of the source.

Assays:
[1] = biological target: T1, C. albicans RNA polymerase II (Candida albicans, UniProt A0A1D8PUA6+Q5A8Y5); test: biochemical; conditions: for IC50: read-out: IC50 Candida pol II
T1 construct: RNA elongation assay on calf thymus DNA
T1 sequence (A0A1D8PUA6 1-1728): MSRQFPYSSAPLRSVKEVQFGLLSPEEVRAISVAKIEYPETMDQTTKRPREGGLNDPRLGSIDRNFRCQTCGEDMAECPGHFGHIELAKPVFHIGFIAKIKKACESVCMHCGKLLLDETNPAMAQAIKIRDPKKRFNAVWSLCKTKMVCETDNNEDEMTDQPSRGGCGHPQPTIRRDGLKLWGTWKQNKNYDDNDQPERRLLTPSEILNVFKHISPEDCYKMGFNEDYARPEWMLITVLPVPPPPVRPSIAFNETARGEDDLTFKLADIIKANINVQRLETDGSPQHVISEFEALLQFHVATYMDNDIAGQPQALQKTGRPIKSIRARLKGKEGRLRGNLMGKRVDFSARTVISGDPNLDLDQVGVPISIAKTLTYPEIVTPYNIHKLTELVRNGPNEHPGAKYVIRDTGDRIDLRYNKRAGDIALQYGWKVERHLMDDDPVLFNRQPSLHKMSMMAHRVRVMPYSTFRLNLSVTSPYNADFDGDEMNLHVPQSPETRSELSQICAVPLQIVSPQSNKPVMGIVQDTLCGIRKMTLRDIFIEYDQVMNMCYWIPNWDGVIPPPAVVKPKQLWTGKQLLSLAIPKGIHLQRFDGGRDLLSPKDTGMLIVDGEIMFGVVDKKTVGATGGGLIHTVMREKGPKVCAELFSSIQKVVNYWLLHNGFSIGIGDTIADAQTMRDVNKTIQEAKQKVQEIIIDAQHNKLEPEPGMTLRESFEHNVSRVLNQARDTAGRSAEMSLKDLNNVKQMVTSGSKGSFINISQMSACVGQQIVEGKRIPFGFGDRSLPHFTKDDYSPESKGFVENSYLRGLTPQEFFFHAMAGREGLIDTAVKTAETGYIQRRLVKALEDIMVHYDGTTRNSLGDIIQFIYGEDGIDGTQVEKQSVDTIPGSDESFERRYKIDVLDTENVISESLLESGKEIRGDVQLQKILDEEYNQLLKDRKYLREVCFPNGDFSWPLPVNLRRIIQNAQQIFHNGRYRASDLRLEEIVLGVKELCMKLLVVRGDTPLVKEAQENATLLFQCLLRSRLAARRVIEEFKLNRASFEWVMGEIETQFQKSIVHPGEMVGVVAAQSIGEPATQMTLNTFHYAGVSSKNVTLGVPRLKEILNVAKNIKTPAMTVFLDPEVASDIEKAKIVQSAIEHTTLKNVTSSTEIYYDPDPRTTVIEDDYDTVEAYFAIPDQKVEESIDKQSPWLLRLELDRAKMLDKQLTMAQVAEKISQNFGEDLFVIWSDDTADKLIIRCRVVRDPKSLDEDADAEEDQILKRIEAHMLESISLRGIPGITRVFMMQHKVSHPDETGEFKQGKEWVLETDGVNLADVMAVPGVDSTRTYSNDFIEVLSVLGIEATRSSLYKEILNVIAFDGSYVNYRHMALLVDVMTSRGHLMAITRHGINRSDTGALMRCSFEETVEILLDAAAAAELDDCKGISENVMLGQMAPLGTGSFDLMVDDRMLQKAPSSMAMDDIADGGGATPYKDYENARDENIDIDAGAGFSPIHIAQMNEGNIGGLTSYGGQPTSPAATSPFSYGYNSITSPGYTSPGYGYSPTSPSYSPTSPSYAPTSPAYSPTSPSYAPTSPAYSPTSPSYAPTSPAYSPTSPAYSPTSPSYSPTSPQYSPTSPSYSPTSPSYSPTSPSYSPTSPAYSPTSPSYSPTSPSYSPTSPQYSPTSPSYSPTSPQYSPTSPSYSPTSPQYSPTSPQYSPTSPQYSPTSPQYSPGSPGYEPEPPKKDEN
T1 sequence (Q5A8Y5 1-1234): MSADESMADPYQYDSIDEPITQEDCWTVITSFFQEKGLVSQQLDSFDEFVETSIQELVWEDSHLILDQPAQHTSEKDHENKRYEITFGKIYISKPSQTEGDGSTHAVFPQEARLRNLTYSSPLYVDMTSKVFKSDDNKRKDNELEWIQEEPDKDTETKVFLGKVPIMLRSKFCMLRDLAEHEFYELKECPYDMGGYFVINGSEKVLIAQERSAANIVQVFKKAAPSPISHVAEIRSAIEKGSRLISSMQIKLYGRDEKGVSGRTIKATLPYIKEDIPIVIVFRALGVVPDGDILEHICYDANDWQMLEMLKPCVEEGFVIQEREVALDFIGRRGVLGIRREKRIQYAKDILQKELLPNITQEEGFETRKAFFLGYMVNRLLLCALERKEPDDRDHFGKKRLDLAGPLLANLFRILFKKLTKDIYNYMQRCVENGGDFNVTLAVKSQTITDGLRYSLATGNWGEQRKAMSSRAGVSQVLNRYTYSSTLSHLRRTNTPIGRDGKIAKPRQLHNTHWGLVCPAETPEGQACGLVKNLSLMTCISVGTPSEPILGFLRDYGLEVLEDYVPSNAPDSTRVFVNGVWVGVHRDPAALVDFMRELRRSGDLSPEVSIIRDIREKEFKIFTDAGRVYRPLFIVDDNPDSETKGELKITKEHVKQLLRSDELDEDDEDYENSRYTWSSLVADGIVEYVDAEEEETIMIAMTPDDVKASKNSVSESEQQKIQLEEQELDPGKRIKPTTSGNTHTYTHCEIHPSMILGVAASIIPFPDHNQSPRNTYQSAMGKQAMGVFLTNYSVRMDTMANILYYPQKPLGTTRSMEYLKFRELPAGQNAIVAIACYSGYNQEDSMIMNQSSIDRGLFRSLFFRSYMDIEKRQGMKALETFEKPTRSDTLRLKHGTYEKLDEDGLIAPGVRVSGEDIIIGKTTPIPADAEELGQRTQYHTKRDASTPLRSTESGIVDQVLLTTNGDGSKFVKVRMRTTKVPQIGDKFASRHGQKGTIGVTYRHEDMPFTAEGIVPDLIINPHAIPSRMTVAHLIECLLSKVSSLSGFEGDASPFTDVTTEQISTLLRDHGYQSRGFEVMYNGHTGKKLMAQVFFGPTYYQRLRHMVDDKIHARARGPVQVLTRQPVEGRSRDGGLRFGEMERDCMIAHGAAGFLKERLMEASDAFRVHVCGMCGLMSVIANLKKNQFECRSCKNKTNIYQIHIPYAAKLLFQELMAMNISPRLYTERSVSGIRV
Protocol: (§1) The following procedure is used for cell-free high-throughput screening. A Tomtec Quadra 96-well pipetting station is used to add the reaction components to polypropylene 96-well dishes. 5 μl aliquots of test compounds dissolved in DMSO (or DMSO alone as a control) are added to wells. This is followed by 20 μl of the RNA polymerase II mixture, which consists of: 10 mM DTT, 200 mM KCl, 10 mM Mn^+2, 1.5 μM bovine serum albumin, and 0.25 μg reconstituted RNA polymerase. After allowing the test compound to interact with the RNA polymerase, 25 μl of the DNA/NTP mixture is added, containing: 1 μg calf thymus DNA, 4 μM [α-^32 P]-UTP, and 400 μM each CTP, ATP, and GTP.
(§2) After incubation for 60 min at 30 C, the reaction is stopped by addition of 50 μl 15% trichloroacetic acid (TCA). The TCA-precipitated RNA is adsorbed onto double-thick glass fiber filtermats using a Tomtec cell harvester. The wells of the microtiter plate and the filter are washed twice with 5% TCA and bound radioactivity is determined using a Wallac microbeta 1450 scintillation counter.
(§3) Inhibitory activity due to the test compound is calculated according to the formula: [formula] where cpmpositive control represents the average of the cpm in wells that received DMSO alone, and cpmsample represents the cpm in the well that received test compound. Compounds that cause at least 50% inhibition are scored as positive "hits" in this assay.
(§4) DNA-directed RNA polymerase II from Candida albicans was purified in sufficient quantity to support high throughput screening of large synthetic chemical and natural product libraries. A biochemical mechanism-based screen for detecting inhibitors of Pol II was developed and implemented. The screen is outlined in FIGS. 4A and 4B.

fungal pathogens = test: In vitro antifungal activity (MIC); type: cell-based
C. albicans [2] = test: MIC alone and with sub-MIC amphotericin B, C. albicans; type: cell-based, Candida albicans
Excerpt: (§5) This synergy was not seen in an amphotericin-resistant strain. Subsequent experiments in a 2-way titration format confirmed the synergistic activity of the combination (FIG. 18). The synergy noted between these two agents was unique among the tested antifungal compounds, and was not noted for other promising compounds identified in the high throughput screen.

wild type C. tropicalis = test: MIC alone and with sub-MIC amphotericin B, C. tropicalis; type: cell-based, Candida tropicalis
Excerpt: as §5

[3] = tested on: amphotericin-resistant strain; test: Synergy with amphotericin B in amphotericin-resistant strain; type: cell-based
Excerpt: as §5

C. albicans [4] = test: Time course of fungicidal activity, C. albicans; type: cell-based, Candida albicans
Excerpt: (§6) Compound 1 is rapidly fungicidal.

S. cerevisiae = test: Time course of fungicidal activity, S. cerevisiae; type: cell-based, Saccharomyces cerevisiae
Excerpt: as §6

[5] = tested on: C. albicans RNA polymerase II; test: biochemical
Protocol: as §1, §2, §3, §4

human Pol II = biological target: T2, human Pol II (Homo sapiens, UniProt P24928+P30876); test: RNA polymerase II counterscreen, human pol II; type: biochemical
T2 construct: Pol II was isolated from Aspergillus nidulans, Saccharomyces cerevisiae, and human cells; endogenous in cells; enzyme isolated from them
Protocol: Pol II was isolated from Aspergillus nidulans, Saccharomyces cerevisiae, and human cells (FIG. 5) and used in secondary screens for fungal spectrum and specificity. Pol I and Pol III were isolated from Candida albicans and used as an additional mechanism to study specificity. Confirmed hits form the primary assay and were evaluated against this panel of polymerases. Agents with activity against Pol II from multiple fungal enzymes but not against the human counterpart were evaluated in vitro against fungal pathogens.

[6] = tested on: systemic Candida infection; test: Murine model for systemic candidiasis; type: in vivo, mouse; conditions: for recoverable colonies from the kidneys of treated animals: systemic candidiasis, mice
Protocol: (§7) In addition, Compound 1 was efficacious in a murine model for systemic candidiasis (FIG. 10). It prolonged mean and median survival times of treated mice in the dosage range of 5 mg/kg/d to 100 mg/kg/d on aq.d., d2-11 schedule. […] The efficacy of Compound 1 was confirmed in a separate experiment using amphotericin as a control (FIG. 11). Compound 1 was also efficacious when administered orally to mice with an established systemic Candida infection (FIG. 12). […] Compound 1 is also effective against systemic candidiasis caused by a strain of C. albicans resistant to fluconazole (FIG. 13). Additional animal testing will include acute toxicity determination, route and schedule dependency in standard efficacy models, efficacy testing in immunosuppressed Candida infected mice, efficacy in an Aspergillus infection model, and pharmacokinetics following IV and oral dosing.
(§8) Compound 6 was evaluated for antifungal efficacy in a systemic candidiasis model in immunocompetent mice (FIG. 18). The compound was administered IP on a q.d., d2-11 schedule. […] 90% long term survival was seen formice treated with Compound 6 at 200/mg/kg. 30% of mice survived when treated with Compound 6 at 100 mg/kg/d. Compound 6 was also effective against systemic candidiasis when administered orally (FIG. 19) and it was effective in treating infections caused by fluconazole-resistant C. albicans.

[7] = tested on: C. albicans resistant to fluconazole; test: Systemic candidiasis caused by fluconazole-resistant C. albicans; conditions: mouse, in vivo
Protocol: as §7, §8

[8] = Compound-related toxicity in treated mice; type: in vivo, mouse
Protocol: as §7, §8

Fusarium culmorum = test: MIC against plant pathogen; type: cell-based
[9] = tested on: Trichophyton mentagrophytes; test: Activity against human dermatophytic fungi; type: cell-based
monkey kidney cells = test: Toxicity against monkey kidney cells; type: cell-based
[10] = tested on: Candida strains resistance to ketoconazole or to amphotericin B; test: Antifungal activity against resistant Candida strains; type: cell-based
C. albicans [11] = test: Frequency of resistance study, C. albicans; type: cell-based, Candida albicans; conditions: selective concentrations 1× to 10× the MIC
Protocol: A frequency of resistance study is conducted for Compound 1 using C. albicans and S. cerevisiae, with amphotericin B as the comparator. Selective concentrations of each compound between 1× and 10× the MIC are used for each compound.

[12] = Safety assessment on target panel
Protocol: (§9) A safety assessment of Compound 1 was conducted. The compound was negative for effects in a number of CNS, cardiovascular, intermediary metabolism, allergy/inflammation and gastrointestinal targets. The compound was nontoxic when administered orally at 300 mg/kg.

[13] = Safety assessment, oral toxicity; type: in vivo; conditions: orally at 300 mg/kg
Protocol: as §9

[14] = listed as stilbene isostere of Compound 1
[15] = Table 1, antifungal activity, read-out: MIC
[16] = Table 2, read-out: IC50 Human pol II

CCCCN(CCO)c1ccc(N=Nc2c(Br)cc([N+](=O)[O-])cc2[N+](=O)[O-])c(C)c1 [Compound 2]
fungal Pol II inhibition [1]: potent inhibitor
fungicidal or fungistatic character (fungal pathogens): does not appear to be fungicidal; also recorded: fungistatic rather than fungicidal
MIC (fungal pathogens; in combination with amphotericin B, strain not named): 1 to 2 µg/mL
potency against Candida albicans in vitro (C. albicans [2]): relatively low potency
synergy with amphotericin B (C. albicans [2]): act synergistically
MIC (C. albicans [2]; alone, ketoconazole resistant C. albicans): 80 µg/mL
MIC (C. albicans [2]; alone, wild type C. albicans): 80 µg/mL
MIC (C. albicans [2]; with sub-MIC amphotericin B (1/3 of the MIC), ketoconazole resistant C. albicans): 1 to 2 µg/mL
MIC (C. albicans [2]; with sub-MIC amphotericin B (1/3 of the MIC), wild type C. albicans): 1 to 2 µg/mL
MIC (wild type C. tropicalis; alone): 80 µg/mL
MIC (wild type C. tropicalis; with sub-MIC amphotericin B (1/3 of the MIC)): 1 to 2 µg/mL
synergy with amphotericin B [3]: not seen

C[C@@H]1[C@H](O)[C@@H](C)/C=C/C=C/C=C/C=C/C=C/C=C/C=C/[C@H](O[C@@H]2O[C@H](C)[C@@H](O)[C@H](N)[C@@H]2O)C[C@@H]2O[C@](O)(C[C@@H](O)C[C@@H](O)[C@H](O)CC[C@@H](O)C[C@@H](O)CC(=O)O[C@H]1C)C[C@H](O)[C@H]2C(=O)O [amphotericin B, reference compound]
exposure time after which no CFUs are recoverable (C. albicans [4]; C. albicans cells): ~30 min
colony forming units after exposure (C. albicans [4]; C. albicans cells, 1.5 μg/ml, similar time (45 minutes)): no colony forming units are detected
exposure time after which no CFUs are recoverable (S. cerevisiae; S. cerevisiae cells): ~30 min
colony forming units after exposure (S. cerevisiae; S. cerevisiae cells, 1.5 μg/ml, similar time (45 minutes)): no colony forming units are detected

Oc1ccc(C=Cc2cccc(C(F)(F)F)c2)cc1 [Compound 6, 4-[-2-[3-(trifluoromethyl)phenyl]ethenyl]phenol]
IC50 ([1]; Table 1): 70 µM
selectivity for Candida/fungal Pol II relative to human Pol II [5]: selective
selectivity for Candida/fungal Pol II relative to human Pol II [5, 14]: retained selective activity
IC50 (human Pol II): 230 µM
in vitro antifungal activity / spectrum (fungal pathogens): broadly active against fungi
MIC (fungal pathogens; [15]): 8.2 µg/mL (≈ 31 µM)
in vitro antifungal activity / spectrum (fungal pathogens; [14]): had antifungal activity
mice survived ([6]; IP q.d. d2-11, 100 mg/kg/d, immunocompetent mice): 30%
long term survival ([6]; IP q.d. d2-11, 200/mg/kg, immunocompetent mice): 90%
efficacy against systemic candidiasis when administered orally ([6]; oral): effective
efficacy against systemic candidiasis caused by fluconazole-resistant C. albicans [7]: effective
compound-related toxicity ([8]; IP, q.d., d2-11, any of the treatment groups, immunocompetent mice): no evidence of compound-related toxicity

Oc1ccc(N=Nc2cccc(C(F)(F)F)c2)cc1 [Compound 1, 4-[-2-[3-(trifluoromethyl)phenyl]diazenyl]-phenol]
fungal Pol II inhibition [1]: potent activity
IC50 ([1]; Table 1): 10 µM
inhibition at 20 µM ([1]; at 20 μM, screening of azo library): 59%
IC50 (human Pol II): 43 µM
in vitro antifungal activity / spectrum (fungal pathogens): broad spectrum in vitro activity
MIC (fungal pathogens; [15]): 16.6 µg/mL (≈ 62.4 µM)
MIC (Fusarium culmorum): 6.25 µg/mL (≈ 23.5 µM)
activity against Trichophyton mentagrophytes [9]: active
toxicity against monkey kidney cells (monkey kidney cells): essentially non-toxic
antifungal activity against resistant Candida strains [10]: retains antifungal activity
exposure time after which no CFUs are recoverable (C. albicans [4]; C. albicans cells): 5 min
colony forming units after exposure (C. albicans [4]; about 10^6 C. albicans cells, 25 μg/ml, 45 minutes): no detectable colony forming units
exposure time after which no CFUs are recoverable (S. cerevisiae; S. cerevisiae cells): 5 min
colony forming units after exposure (S. cerevisiae; about 10^6 S. cerevisiae cells, 25 μg/ml, 45 minutes): no detectable colony forming units
mean and median survival times of treated mice ([6]; 5 mg/kg/d to 100 mg/kg/d, q.d., d2-11): prolonged
efficacy when administered orally ([6]; mice with an established systemic Candida infection, oral): efficacious
recoverable colonies from the kidneys of treated animals [6]: reduced
efficacy against systemic candidiasis caused by fluconazole-resistant C. albicans [7]: effective
compound related toxicity ([8]; IP or PO for 10 days at 100 mg/kg/d): No signs of compound related toxicity
frequency of resistance (C. albicans [11]): < 1×10^-8
effects in safety assessment targets [12]: negative
toxicity when administered orally [13]: nontoxic

Oc1ccc(CCc2cccc(C(F)(F)F)c2)cc1 [CH2 CH2]
IC50 ([1]; Table 1): 230 µM
IC50 (human Pol II; Table 1, read-out: IC50 Human pol II): > 2000 µM

COc1ccc(C=Cc2cccc(C(F)(F)F)c2)cc1 [Compound 24, 4-[-2-[3-(trifluoromethyl)-phenyl]ethenyl]-anisole]
IC50 ([1]; Table 2): > 2000 µM
IC50 (human Pol II; [16]): > 2000 µM

O=[N+]([O-])c1cc(C(F)(F)F)ccc1N=Nc1ccc(O)cc1 [Compound 7]
IC50 ([1]; Table 2): 190 µM
IC50 (human Pol II; [16]): 300 µM

COc1ccc(N=Nc2cccc(C(F)(F)F)c2)cc1 [Compound 3, 4-[-2-[3-(trifluoromethyl)phenyl]diazenyl]-anisole]
IC50 ([1]; Table 2): > 2000 µM
IC50 (human Pol II; [16]): > 2000 µM

OC(Cn1cncn1)(Cn1cncn1)c1ccc(F)cc1F [fluconazole, reference compound]
recoverable colonies from the kidneys of treated animals [6]: reduced

Cc1cccc(N=Nc2ccc(O)cc2)c1 [Compound 5, 4-[-2-[3-(methyl)phenyl]diazenyl]-phenol]
IC50 ([1]; Table 2): 90 µM
IC50 (human Pol II; [16]): 340 µM

O=C(O)c1cc(N=Nc2cccc(C(F)(F)F)c2)ccc1O [Compound 9, 5-[-2-[3-(trifluoromethyl)phenyl]diazenyl]-2-hydroxy-benzoic acid]
IC50 ([1]; Table 2): 193 µM
IC50 (human Pol II; [16]): 148 µM
